Assay results published in PubChem BioAssay (NCI).
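All cell lines were grown in 96-well plates and treated with compound for 48 hours. GI50 = concentration required for 50% inhibition of growth. Definition used: TGI = concentration required for complete inhibition of growth.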

Experiments:
Test in all cases: growth of human tumour cells (NCI), 48 h
SK-MEL-2 melanoma = system: SK-MEL-2 melanoma
HCC-2998 colon = system: HCC-2998 colon
MCF7 breast = system: MCF7 breast
SK-OV-3 ovarian = system: SK-OV-3 ovarian
SNB-75 CNS = system: SNB-75 CNS
RXF 393 renal = system: RXF 393 renal
HOP-92 NSCLC = system: HOP-92 NSCLC
MDA-MB-435 = system: MDA-MB-435
BT-549 breast = system: BT-549 breast
786-0 renal = system: 786-0 renal
SN12C renal = system: SN12C renal
HCT-15 colon = system: HCT-15 colon
HL-60(TB) leukemia = system: HL-60(TB) leukemia
COLO 205 colon = system: COLO 205 colon
T-47D breast = system: T-47D breast
MDA-MB-231 breast = system: MDA-MB-231 breast
SNB-19 CNS = system: SNB-19 CNS
CAKI-1 renal = system: CAKI-1 renal
DU-145 prostate = system: DU-145 prostate
SW-620 colon = system: SW-620 colon
NCI/ADR-RES ovarian = system: NCI/ADR-RES ovarian
UO-31 renal = system: UO-31 renal
U251 CNS = system: U251 CNS
IGROV1 ovarian = system: IGROV1 ovarian
CCRF-CEM leukemia = system: CCRF-CEM leukemia
OVCAR-5 ovarian = system: OVCAR-5 ovarian
HT29 colon = system: HT29 colon
UACC-62 melanoma = system: UACC-62 melanoma
HCT-116 colon = system: HCT-116 colon
OVCAR-3 ovarian = system: OVCAR-3 ovarian
HOP-62 NSCLC = system: HOP-62 NSCLC
LOX IMVI melanoma = system: LOX IMVI melanoma
SF-295 CNS = system: SF-295 CNS
NCI-H226 lung = system: NCI-H226 lung
UACC-257 melanoma = system: UACC-257 melanoma
NCI-H522 lung = system: NCI-H522 lung
K-562 leukemia = system: K-562 leukemia
SF-539 CNS = system: SF-539 CNS
PC-3 prostate = system: PC-3 prostate
NCI-H23 lung = system: NCI-H23 lung
M14 melanoma = system: M14 melanoma
EKVX NSCLC = system: EKVX NSCLC
RPMI-8226 leukemia = system: RPMI-8226 leukemia
KM12 colon = system: KM12 colon
NCI-H460 lung = system: NCI-H460 lung
OVCAR-8 ovarian = system: OVCAR-8 ovarian
MALME-3M melanoma = system: MALME-3M melanoma
TK-10 renal = system: TK-10 renal
SR leukemia = system: SR leukemia
SK-MEL-5 melanoma = system: SK-MEL-5 melanoma
SF-268 CNS = system: SF-268 CNS
A549 NSCLC = system: A549 NSCLC
OVCAR-4 ovarian = system: OVCAR-4 ovarian
A498 renal = system: A498 renal
HS 578T breast = system: HS 578T breast
MOLT-4 leukemia = system: MOLT-4 leukemia
SK-MEL-28 melanoma = system: SK-MEL-28 melanoma

CN[C@H]1CN(c2ccc3c(=O)c(C(=O)O)cn(-c4nccs4)c3n2)C[C@@H]1OC
GI50 (SK-MEL-2 melanoma): 1.51 µM
TGI (SK-MEL-2 melanoma): 3.56 µM
GI50 (HCC-2998 colon): 0.856 µM
TGI (HCC-2998 colon): 3.58 µM
GI50 (MCF7 breast): 0.358 µM
TGI (MCF7 breast): 5.07 µM
GI50 (SK-OV-3 ovarian): 1.08 µM
TGI (SK-OV-3 ovarian): 5.29 µM
GI50 (SNB-75 CNS): 0.637 µM
TGI (SNB-75 CNS): 2.55 µM
GI50 (RXF 393 renal): 1.16 µM
TGI (RXF 393 renal): 3.63 µM
GI50 (HOP-92 NSCLC): 0.176 µM
TGI (HOP-92 NSCLC): 0.938 µM
GI50 (MDA-MB-435): 1.29 µM
TGI (MDA-MB-435): 3.51 µM
GI50 (BT-549 breast): 0.758 µM
TGI (BT-549 breast): 3.05 µM
GI50 (786-0 renal): 0.426 µM
TGI (786-0 renal): 6.18 µM
GI50 (SN12C renal): 0.364 µM
TGI (SN12C renal): 5.69 µM
GI50 (HCT-15 colon): 1.13 µM
TGI (HCT-15 colon): 7.72 µM
GI50 (HL-60(TB) leukemia): 0.292 µM
TGI (HL-60(TB) leukemia): 2.07 µM
GI50 (COLO 205 colon): 1.21 µM
TGI (COLO 205 colon): 2.66 µM
GI50 (T-47D breast): 1.23 µM
TGI (T-47D breast): 7.76 µM
GI50 (MDA-MB-231 breast): 1.52 µM
TGI (MDA-MB-231 breast): 6.92 µM
GI50 (SNB-19 CNS): 0.376 µM
TGI (SNB-19 CNS): 14.2 µM
GI50 (CAKI-1 renal): 0.271 µM
TGI (CAKI-1 renal): 2.24 µM
GI50 (DU-145 prostate): 1.28 µM
TGI (DU-145 prostate): 5.28 µM
GI50 (SW-620 colon): 0.633 µM
TGI (SW-620 colon): 3.54 µM
GI50 (NCI/ADR-RES ovarian): 1.3 µM
TGI (NCI/ADR-RES ovarian): 7.56 µM
GI50 (UO-31 renal): 0.566 µM
TGI (UO-31 renal): 2.93 µM
GI50 (U251 CNS): 0.42 µM
TGI (U251 CNS): 7.23 µM
GI50 (IGROV1 ovarian): 0.353 µM
TGI (IGROV1 ovarian): 7.15 µM
GI50 (CCRF-CEM leukemia): 0.316 µM
TGI (CCRF-CEM leukemia): > 22.9 µM
GI50 (OVCAR-5 ovarian): 2.31 µM
TGI (OVCAR-5 ovarian): 6.45 µM
GI50 (HT29 colon): 1.04 µM
TGI (HT29 colon): 4.2 µM
GI50 (UACC-62 melanoma): 0.359 µM
TGI (UACC-62 melanoma): 1.95 µM
GI50 (HCT-116 colon): 0.437 µM
TGI (HCT-116 colon): 4.58 µM
GI50 (OVCAR-3 ovarian): 1.82 µM
TGI (OVCAR-3 ovarian): 6.48 µM
GI50 (HOP-62 NSCLC): 0.6 µM
TGI (HOP-62 NSCLC): 3.4 µM
GI50 (LOX IMVI melanoma): 0.266 µM
TGI (LOX IMVI melanoma): 3.4 µM
GI50 (SF-295 CNS): 0.332 µM
TGI (SF-295 CNS): 2.37 µM
GI50 (NCI-H226 lung): 0.632 µM
TGI (NCI-H226 lung): 3.24 µM
GI50 (UACC-257 melanoma): 1.11 µM
TGI (UACC-257 melanoma): 2.83 µM
GI50 (NCI-H522 lung): 0.733 µM
TGI (NCI-H522 lung): 2.98 µM
GI50 (K-562 leukemia): 0.632 µM
TGI (K-562 leukemia): 5.81 µM
GI50 (SF-539 CNS): 0.592 µM
TGI (SF-539 CNS): 4.14 µM
GI50 (PC-3 prostate): 1.65 µM
TGI (PC-3 prostate): 19.4 µM
GI50 (NCI-H23 lung): 0.34 µM
TGI (NCI-H23 lung): 2.01 µM
GI50 (M14 melanoma): 0.783 µM
TGI (M14 melanoma): 2.34 µM
GI50 (EKVX NSCLC): 1.97 µM
TGI (EKVX NSCLC): 7.17 µM
GI50 (RPMI-8226 leukemia): 1.08 µM
TGI (RPMI-8226 leukemia): > 24 µM
GI50 (KM12 colon): 1.37 µM
TGI (KM12 colon): 13.9 µM
GI50 (NCI-H460 lung): 0.133 µM
TGI (NCI-H460 lung): 1.53 µM
GI50 (OVCAR-8 ovarian): 0.457 µM
TGI (OVCAR-8 ovarian): 3.73 µM
GI50 (MALME-3M melanoma): 0.516 µM
TGI (MALME-3M melanoma): 2.27 µM
GI50 (TK-10 renal): 1.1 µM
TGI (TK-10 renal): 4.13 µM
GI50 (SR leukemia): 0.0508 µM
TGI (SR leukemia): 0.777 µM
GI50 (SK-MEL-5 melanoma): 0.831 µM
TGI (SK-MEL-5 melanoma): 2.23 µM
GI50 (SF-268 CNS): 0.706 µM
TGI (SF-268 CNS): 6.49 µM
GI50 (A549 NSCLC): 0.511 µM
TGI (A549 NSCLC): 2.76 µM
GI50 (OVCAR-4 ovarian): 2.27 µM
TGI (OVCAR-4 ovarian): 9.22 µM
GI50 (A498 renal): 0.273 µM
TGI (A498 renal): 2.01 µM
GI50 (HS 578T breast): 1.49 µM
TGI (HS 578T breast): 6.68 µM
GI50 (MOLT-4 leukemia): 0.126 µM
TGI (MOLT-4 leukemia): 1 µM
GI50 (SK-MEL-28 melanoma): 1.31 µM
TGI (SK-MEL-28 melanoma): 3.01 µM
